The subject of data set [1] is audiogenic seizures. Kind of data set: Protective effects against audiogenic seizures in mice. It counts as in vivo. The settings on record: oral; 800 mg./kg. valproic acid equivalent; 30 min after dosing; bell for one minute; groups of 10 mice. As to the method:
The valproic acid equivalent of 800 mg./kg. of each compound was administered by oral intubation in a composition prepared as shown in Example 12 to groups of 10 mice. Thirty minutes after dosing, convulsions were produced by electrically activating a bell for one minute.

In data set [2] the test system is gastro-intestinal tract. The settings on record: cited from earlier work.
Data set [3] has as its system epileptic seizures. The settings on record: stated as background; cited from earlier work.
Data set [4] is described as follows: Absorption profiles and area-under-the-curve in beagle dog. It counts as in vivo. The settings on record: blood, single oral dose 24.9 mg./kg. valproic acid equivalent. As to the method: Since it is possible that the new compounds are not absorbed as quickly as valproic acid itself, absorption profiles and area-under-the-curve (AUC) values were calculated for valproic acid, glyceride trivalproate and representatives of the current compounds. The phrase AUC values represents the total quantity of the compound which is absorbed by the blood during the time periods referred to in Table III expressed in mcg./ml. A beagle dog received a single oral dose of 24.9 mg./kg. valproic acid equivalent in a composition prepared as shown in Example 12. The blood concentrations are shown in Table III as mcg./ml. while the AUC values are expressed as hr.×mcg./ml.

Data set [5] can be described thus: Valproic acid blood plasma levels after oral intubation in mice. The settings on record: mouse, equivalent of 200 mg. valproic acid per animal, mean of 3-18 animals. It is filed as in vivo. How it is done: (§1) The compounds of the present invention were administered to mice and rats by oral intubation. A vehicle of 0.5% aqueous methylcellulose containing one drop of a polyethylene sorbitan monooleate was used to suspend the above compounds. In the case of Example 1, the compound was first ground in a tissue-homogenizer followed by mixing in a Waring blender. The results are shown in Table I expressed in mcg. of valproic acid per ml. of blood plasma at specified times.

The nature of data set [6]: Valproic acid blood plasma levels after oral intubation in rats. It counts as in vivo. The settings on record: rat, equivalent of 200 mg. valproic acid per animal, mean of 3-18 animals. How it is done: as §1

Here are results for four molecules from patent US4654370A, “Glyceryl valproates” (Abbott Laboratories, priority 1980, dated 1987).

As a reminder, the AUC is the area under the concentration-time curve, a measure of exposure.

On to `CCCC(CCC)C(=O)OCC(O)CO` (racemic) [Example 6, 1-Valproyl-glycerol], for which, in data set [1], the “Percentage of Mice Exhibiting Seizures, Any Type” value (“Percentage … Any Type” for short) came out at 50% and the “Percentage of Mice Exhibiting Seizures, Tonic Extension” value (“Percentage … Tonic Extension” below) turned out to be 10%.

In the case of `CCCC(CCC)C(=O)OC(COC(C)=O)COC(C)=O` [Example 5, 1,3-Diacetyl-2-valproyl-glyceride], in data set [1], the “Percentage … Any Type” value was found to be 50% and the “Percentage … Tonic Extension” value was 10%.

Consider `CCCC(CCC)C(=O)OCC(COC(=O)C(CCC)CCC)OC(=O)C(CCC)CCC` [Glycerol trivalproate], for which the adverse side effects entry in data set [2] (reported by Meijer and Meinardi, 1975) is recorded as “no adverse side effects”. Further, in data set [1], the “Percentage … Any Type” value is 100% and the “Percentage … Tonic Extension” value is given as 80%. Moreover, the therapeutic value entry in data set [3] is “substantially no therapeutic value”.

Turning to `CCCC(CCC)C(=O)O` [Valproic Acid, 2-propylpentanoic acid], the results for the concentration at 0.5 h in data set [4] (0.5 hrs.), in data set [5] (0.5 hrs.) and in data set [6] (0.5 hrs.) were 65.6 µg/mL, 134 µg/mL and 84.1 µg/mL, respectively. Moreover, in data set [4] (1 hr.), the concentration at 1 h was found to be 40.8 µg/mL. Also, the concentration at 2 h in data set [4] (2 hrs.) is 9 µg/mL. Also, in data set [4] (4 hrs.), the concentration at 4 h came to 2.6 µg/mL. In addition, the concentration at 6 h in data set [4] (6 hrs.) amounted to 1.3 µg/mL. The exposure (AUC) at 8 h in data set [4] (8 hrs.) stood at 82.2 µg·h/mL. The “gastro-intestinal irritation in patients” value in data set [2] (patients using valproic acid) is given as 9-16%. Besides, the concentration at 1.5 h in data set [5] (1.5 hrs.) was 72 µg/mL; in data set [6] (1.5 hrs.), 27.5 µg/mL. The “Percentage … Any Type” value in data set [1] is listed as 50%. Further, the “Percentage … Tonic Extension” value in data set [1] was 10%.
